{
  "source": "paper PMC5218480",
  "about": "(PLoS ONE, 2017)",
  "system": "MV-4-11 cells",
  "assay": "Gene expression microarray analysis (Affymetrix PrimeView) and GSEA",
  "assay_type": "cell-based, human",
  "parameters": "RFU PODN (11730768_x_at) / Fold change /veh PODN (11730768_x_at) / RFU LINC00158 (11744669_a_at) / Fold change /veh LINC00158 (11744669_a_at) / RFU DUSP10 (11751237_a_at) / Fold change /veh DUSP10 (11751237_a_at) / RFU ID3 (11757404_x_at) / Fold change /veh ID3 (11757404_x_at) / RFU PLEKHG5 (11737974_s_at) / Fold change /veh PLEKHG5 (11737974_s_at) / RFU LRRC4B (11730491_at) / Fold change /veh LRRC4B (11730491_at) / RFU GIMAP4 (11747438_a_at) / Fold change /veh GIMAP4 (11747438_a_at) / RFU KRT8 (11758183_x_at) / Fold change /veh KRT8 (11758183_x_at) / RFU CNN1 (11734310_a_at) / Fold change /veh CNN1 (11734310_a_at) / RFU VPS37D (11726825_at) / Fold change /veh VPS37D (11726825_at) / RFU C10orf10 (11716522_x_at) / Fold change /veh C10orf10 (11716522_x_at) / RFU KIR2DL2 /// KIR2DL4 /// KIR2DL5A /// KIR2DL5B /// KIR2DS1 /// KIR2DS2 /// KIR2DS3 /// KIR2DS4 /// KIR3DL3 /// KIR3DL3 /// KIR3DS1 (11738374_at) / Fold change /veh KIR2DL2 /// KIR2DL4 /// KIR2DL5A /// KIR2DL5B /// KIR2DS1 /// KIR2DS2 /// KIR2DS3 /// KIR2DS4 /// KIR3DL3 /// KIR3DL3 /// KIR3DS1 (11738374_at) / RFU C1QL1 (11718748_at) / Fold change /veh C1QL1 (11718748_at) / RFU TMPRSS4 (11747572_a_at) / Fold change /veh TMPRSS4 (11747572_a_at) / RFU HAMP (11756126_x_at) / Fold change /veh HAMP (11756126_x_at) / RFU RNFT2 (11725882_a_at) / Fold change /veh RNFT2 (11725882_a_at) / RFU NR4A2 (11747474_a_at) / Fold change /veh NR4A2 (11747474_a_at) / RFU ABCC12 (11746883_a_at) / Fold change /veh ABCC12 (11746883_a_at) / RFU TMEM136 (11760407_x_at) / Fold change /veh TMEM136 (11760407_x_at) / RFU CLDN22 /// WWC2 (11732394_at) / Fold change /veh CLDN22 /// WWC2 (11732394_at) / RFU HLA-DPB1 (11760878_x_at) / Fold change /veh HLA-DPB1 (11760878_x_at) / RFU SPINT1 (11716480_a_at) / Fold change /veh SPINT1 (11716480_a_at) / RFU GAP43 (11754022_s_at) / Fold change /veh GAP43 (11754022_s_at) / RFU A4GNT (11735810_at) / Fold change /veh A4GNT (11735810_at) / RFU PRB3 (11715151_x_at) / Fold change /veh PRB3 (11715151_x_at) / RFU TUBB4B (11761932_at) / Fold change /veh TUBB4B (11761932_at) / RFU CAPN14 (11732068_a_at) / Fold change /veh CAPN14 (11732068_a_at) / RFU TMCC2 (11721928_a_at) / Fold change /veh TMCC2 (11721928_a_at) / RFU IRGQ (11745062_a_at) / Fold change /veh IRGQ (11745062_a_at) / RFU FAM174B (11720279_a_at) / Fold change /veh FAM174B (11720279_a_at) / RFU TMPRSS4 (11748680_a_at) / Fold change /veh TMPRSS4 (11748680_a_at) / RFU FAM212B (11763350_a_at) / Fold change /veh FAM212B (11763350_a_at) / RFU PLEKHG5 (11743358_a_at) / Fold change /veh PLEKHG5 (11743358_a_at) / RFU ZSCAN30 (11745921_a_at) / Fold change /veh ZSCAN30 (11745921_a_at) / RFU CMKLR1 (11741424_a_at) / Fold change /veh CMKLR1 (11741424_a_at) / RFU LOC101060620 /// MAPK8IP1 (11723275_at) / Fold change /veh LOC101060620 /// MAPK8IP1 (11723275_at) / RFU SPTSSB (11747773_x_at) / Fold change /veh SPTSSB (11747773_x_at) / RFU PRSS12 (11739890_at) / Fold change /veh PRSS12 (11739890_at) / RFU BIN1 (11741810_x_at) / Fold change /veh BIN1 (11741810_x_at) / RFU WNT11 (11732464_a_at) / Fold change /veh WNT11 (11732464_a_at) / RFU C10orf10 (11716521_a_at) / Fold change /veh C10orf10 (11716521_a_at) / RFU C5orf56 (11738089_at) / Fold change /veh C5orf56 (11738089_at) / RFU CYB561 (11721691_x_at) / Fold change /veh CYB561 (11721691_x_at) / RFU ANKRD19P (11752326_a_at) / Fold change /veh ANKRD19P (11752326_a_at) / RFU OR2T12 /// OR2T33 /// OR2T8 (11738714_s_at) / Fold change /veh OR2T12 /// OR2T33 /// OR2T8 (11738714_s_at) / RFU VCAN (11748164_a_at) / Fold change /veh VCAN (11748164_a_at) / RFU JSRP1 (11732532_at) / Fold change /veh JSRP1 (11732532_at) / RFU KRTAP10-11 (11738290_x_at) / Fold change /veh KRTAP10-11 (11738290_x_at) / RFU MYO3A (11730013_a_at) / Fold change /veh MYO3A (11730013_a_at) / RFU EBF3 (11725865_a_at) / Fold change /veh EBF3 (11725865_a_at) / RFU CAMK2N1 (11719241_x_at) / Fold change /veh CAMK2N1 (11719241_x_at) / RFU C5orf56 (11738088_a_at) / Fold change /veh C5orf56 (11738088_a_at) / RFU OLFML3 (11715873_a_at) / Fold change /veh OLFML3 (11715873_a_at) / RFU LOC100653217 /// NTM (11731650_a_at) / Fold change /veh LOC100653217 /// NTM (11731650_a_at) / RFU MAPK11 (11762145_a_at) / Fold change /veh MAPK11 (11762145_a_at) / RFU FIZ1 (11724087_x_at) / Fold change /veh FIZ1 (11724087_x_at) / RFU OASL (11726364_x_at) / Fold change /veh OASL (11726364_x_at) / RFU SOX15 (11748057_x_at) / Fold change /veh SOX15 (11748057_x_at) / RFU CD79A (11719716_a_at) / Fold change /veh CD79A (11719716_a_at) / RFU HIST1H1D (11736915_at) / Fold change /veh HIST1H1D (11736915_at) / RFU CASKIN2 (11723855_a_at) / Fold change /veh CASKIN2 (11723855_a_at) / RFU LOC730098 (11760151_x_at) / Fold change /veh LOC730098 (11760151_x_at) / RFU OR4N2 (11742367_at) / Fold change /veh OR4N2 (11742367_at) / RFU PRRT2 (11749266_a_at) / Fold change /veh PRRT2 (11749266_a_at) / RFU SNX32 (11753110_a_at) / Fold change /veh SNX32 (11753110_a_at) / RFU CDHR5 (11726645_a_at) / Fold change /veh CDHR5 (11726645_a_at) / RFU RCAN1 (11760418_a_at) / Fold change /veh RCAN1 (11760418_a_at) / RFU FAM167A (11723789_a_at) / Fold change /veh FAM167A (11723789_a_at) / RFU FAM26E (11764081_at) / Fold change /veh FAM26E (11764081_at) / RFU ISYNA1 (11749810_s_at) / Fold change /veh ISYNA1 (11749810_s_at) / RFU ACY1 (11761880_at) / Fold change /veh ACY1 (11761880_at) / RFU 11764098_at / Fold change /veh 11764098_at / RFU SAMD14 (11745864_x_at) / Fold change /veh SAMD14 (11745864_x_at) / RFU NPB (11741838_a_at) / Fold change /veh NPB (11741838_a_at) / RFU TMPRSS6 (11731388_a_at) / Fold change /veh TMPRSS6 (11731388_a_at) / RFU KRTAP10-2 (11738614_at) / Fold change /veh KRTAP10-2 (11738614_at) / RFU ARHGAP8 /// PRR5-ARHGAP8 (11727945_x_at) / Fold change /veh ARHGAP8 /// PRR5-ARHGAP8 (11727945_x_at) / RFU KRTAP5-7 /// NADSYN1 (11734609_at) / Fold change /veh KRTAP5-7 /// NADSYN1 (11734609_at) / RFU RASL12 (11751679_a_at) / Fold change /veh RASL12 (11751679_a_at) / RFU CDKN2B (11736163_a_at) / Fold change /veh CDKN2B (11736163_a_at) / RFU PRF1 (11729649_at) / Fold change /veh PRF1 (11729649_at) / RFU, ZNF638 /// ZNF638-IT1 / Fold change vs veh, ZNF638 /// ZNF638-IT1 / RFU, PANK3 / Fold change vs veh, PANK3 / RFU, SH3YL1 / Fold change vs veh, SH3YL1 / RFU, ZEB2 / Fold change vs veh, ZEB2 / RFU, NRIP1 / Fold change vs veh, NRIP1 / RFU, PTTG1IP / Fold change vs veh, PTTG1IP / RFU, CAPN2 / Fold change vs veh, CAPN2 / RFU, MED14 / Fold change vs veh, MED14 / RFU, SNORA58 / Fold change vs veh, SNORA58 / RFU, C1orf63 / Fold change vs veh, C1orf63 / RFU, LRRFIP1 / Fold change vs veh, LRRFIP1 / RFU, NDUFAF7 / Fold change vs veh, NDUFAF7 / RFU, SLC12A2 / Fold change vs veh, SLC12A2 / RFU, IBTK / Fold change vs veh, IBTK / RFU, ESF1 / Fold change vs veh, ESF1 / Fold change vs veh, TMEM50B / RFU, TAOK1 / Fold change vs veh, TAOK1 / RFU, ACBD3 / Fold change vs veh, ACBD3 / RFU, TMA16 / Fold change vs veh, TMA16 / RFU, RWDD3 / Fold change vs veh, RWDD3 / RFU, BCAT1 / Fold change vs veh, BCAT1 / RFU, EDEM3 / Fold change vs veh, EDEM3 / RFU, TMEM33 / Fold change vs veh, TMEM33 / RFU, WDR75 / Fold change vs veh, WDR75 / RFU, AHCTF1 / Fold change vs veh, AHCTF1 / RFU, TFRC / Fold change vs veh, TFRC / RFU, ZDHHC17 / Fold change vs veh, ZDHHC17 / RFU, NOM1 / Fold change vs veh, NOM1 / RFU, ARL8B / Fold change vs veh, ARL8B / RFU, ZBTB11 / Fold change vs veh, ZBTB11 / RFU, TAMM41 / Fold change vs veh, TAMM41 / RFU, KIAA1704 /// LOC100996395 / Fold change vs veh, KIAA1704 /// LOC100996395 / RFU, ING1 / Fold change vs veh, ING1 / RFU, TRMT61B / Fold change vs veh, TRMT61B / RFU, FUBP3 / Fold change vs veh, FUBP3 / RFU, TP53 / Fold change vs veh, TP53 / RFU, TNKS2 / Fold change vs veh, TNKS2 / RFU, ZFP14 / Fold change vs veh, ZFP14 / RFU, ACTR2 / Fold change vs veh, ACTR2 / RFU, PPP3R1 / Fold change vs veh, PPP3R1 / RFU, PIK3R1 / Fold change vs veh, PIK3R1 / RFU, HNRNPA1 / Fold change vs veh, HNRNPA1 / RFU, RNF170 / Fold change vs veh, RNF170 / RFU, ZNF28 / Fold change vs veh, ZNF28 / RFU, RNGTT / Fold change vs veh, RNGTT / RFU, OGT / Fold change vs veh, OGT / RFU, BRD1 / Fold change vs veh, BRD1 / RFU, MARS / Fold change vs veh, MARS / RFU, ZNF655 / Fold change vs veh, ZNF655 / RFU, FAHD1 / Fold change vs veh, FAHD1 / RFU, BDP1 / Fold change vs veh, BDP1 / RFU, LRRCC1 / Fold change vs veh, LRRCC1 / RFU, ARID1A / Fold change vs veh, ARID1A / RFU, ZNF146 / Fold change vs veh, ZNF146 / RFU, ZNF330 / Fold change vs veh, ZNF330 / RFU, GPN3 / Fold change vs veh, GPN3 / RFU, C9orf123 / Fold change vs veh, C9orf123 / RFU, N4BP2L2 / Fold change vs veh, N4BP2L2 / RFU, ARFIP1 / Fold change vs veh, ARFIP1 / RFU, FAM179B / Fold change vs veh, FAM179B / RFU, BCL10 / Fold change vs veh, BCL10 / RFU, UHRF1BP1L / Fold change vs veh, UHRF1BP1L / RFU, BET1 / Fold change vs veh, BET1 / RFU, CNOT2 / Fold change vs veh, CNOT2 / RFU, ZNF268 / Fold change vs veh, ZNF268 / Fold change vs veh, ZNF507 / RFU, DGCR2 / Fold change vs veh, DGCR2 / RFU, WDSUB1 / Fold change vs veh, WDSUB1 / Fold change vs veh, HSP90B1 /// MIR3652 / RFU, ADSS / Fold change vs veh, ADSS / RFU, GK / Fold change vs veh, GK / RFU, ZNF148 / Fold change vs veh, ZNF148 / RFU, TAF9 / Fold change vs veh, TAF9 / RFU, SLC1A5 / Fold change vs veh, SLC1A5 / RFU, SLMO2 / Fold change vs veh, SLMO2 / RFU, ABCC4 / Fold change vs veh, ABCC4 / RFU, LOC101060439 /// RAP1B / Fold change vs veh, LOC101060439 /// RAP1B / RFU, RFX7 / Fold change vs veh, RFX7 / RFU, GTPBP10 / Fold change vs veh, GTPBP10 / RFU, CNEP1R1 / Fold change vs veh, CNEP1R1 / RFU, BIVM-ERCC5 /// ERCC5 / Fold change vs veh, BIVM-ERCC5 /// ERCC5 / RFU, ILF3 / Fold change vs veh, ILF3 / RFU 11762660_at / Fold change /veh 11762660_at / RFU VCAN (11757783_s_at) / Fold change /veh VCAN (11757783_s_at) / RFU DDX43 (11728927_at) / Fold change /veh DDX43 (11728927_at) / RFU KRT8 (11758188_x_at) / Fold change /veh KRT8 (11758188_x_at) / RFU NKD1 (11759106_at) / Fold change /veh NKD1 (11759106_at) / RFU SRD5A1 (11742802_a_at) / Fold change /veh SRD5A1 (11742802_a_at) / RFU TPSAB1 /// TPSB2 (11721975_s_at) / Fold change /veh TPSAB1 /// TPSB2 (11721975_s_at) / RFU GSTM3 (11746129_a_at) / Fold change /veh GSTM3 (11746129_a_at) / RFU IL23R (11737362_x_at) / Fold change /veh IL23R (11737362_x_at) / RFU TMEM51 (11727254_a_at) / Fold change /veh TMEM51 (11727254_a_at) / RFU PIWIL2 (11732686_x_at) / Fold change /veh PIWIL2 (11732686_x_at) / RFU ORM1 (11744905_x_at) / Fold change /veh ORM1 (11744905_x_at) / RFU CCDC152 (11743942_at) / Fold change /veh CCDC152 (11743942_at) / RFU ECM1 (11717891_a_at) / Fold change /veh ECM1 (11717891_a_at) / RFU IL23R (11748794_a_at) / Fold change /veh IL23R (11748794_a_at) / RFU TNFAIP8L3 (11732012_x_at) / Fold change /veh TNFAIP8L3 (11732012_x_at) / RFU MBOAT4 (11741988_at) / Fold change /veh MBOAT4 (11741988_at) / RFU 11764193_at / Fold change /veh 11764193_at / RFU TMEM53 (11763286_at) / Fold change /veh TMEM53 (11763286_at) / RFU MAGEB2 (11727129_at) / Fold change /veh MAGEB2 (11727129_at) / RFU TMEM200A (11744735_a_at) / Fold change /veh TMEM200A (11744735_a_at) / RFU CCDC152 (11751479_a_at) / Fold change /veh CCDC152 (11751479_a_at) / RFU FAM211A (11726209_a_at) / Fold change /veh FAM211A (11726209_a_at) / RFU RGS16 (11746705_a_at) / Fold change /veh RGS16 (11746705_a_at) / RFU VCAN (11755009_s_at) / Fold change /veh VCAN (11755009_s_at) / RFU RHOB (11743442_s_at) / Fold change /veh RHOB (11743442_s_at) / RFU RGS16 (11720943_a_at) / Fold change /veh RGS16 (11720943_a_at) / RFU RGS16 (11720944_at) / Fold change /veh RGS16 (11720944_at) / RFU, VPS4B / Fold change vs veh, VPS4B / RFU, CREB1 / Fold change vs veh, CREB1 / RFU, DNAJC13 / Fold change vs veh, DNAJC13 / RFU, GNAQ / Fold change vs veh, GNAQ / RFU, CDK5R1 / Fold change vs veh, CDK5R1 / RFU, ZRANB3 / Fold change vs veh, ZRANB3 / RFU, CUL4A / Fold change vs veh, CUL4A / RFU, CCNY / Fold change vs veh, CCNY / RFU, UFL1 / Fold change vs veh, UFL1 / RFU, COG3 / Fold change vs veh, COG3 / RFU, DIAPH2 / Fold change vs veh, DIAPH2 / RFU, SKA2 / Fold change vs veh, SKA2 / RFU, AFF3 / Fold change vs veh, AFF3 / RFU, LMF1 / Fold change vs veh, LMF1 / RFU, IPO11 / Fold change vs veh, IPO11 / RFU, DFFB / Fold change vs veh, DFFB / RFU, FOXP1 / Fold change vs veh, FOXP1 / RFU, CARD8 / Fold change vs veh, CARD8 / RFU, STRN3 / Fold change vs veh, STRN3 / RFU, ADK / Fold change vs veh, ADK / RFU, RASSF2 / Fold change vs veh, RASSF2 / RFU, WIPF1 / Fold change vs veh, WIPF1 / RFU, LARP1B / Fold change vs veh, LARP1B / RFU, RASA1 / Fold change vs veh, RASA1 / RFU, RB1 / Fold change vs veh, RB1 / RFU, PPFIA1 / Fold change vs veh, PPFIA1 / RFU, MAT2A / Fold change vs veh, MAT2A / RFU, CCT5 / Fold change vs veh, CCT5 / RFU, WDR92 / Fold change vs veh, WDR92 / RFU, CUX1 / Fold change vs veh, CUX1 / RFU, TTC7A / Fold change vs veh, TTC7A / RFU, TMEM135 / Fold change vs veh, TMEM135 / RFU, DEPTOR / Fold change vs veh, DEPTOR / RFU, CPM / Fold change vs veh, CPM / RFU, DNAJB6 / Fold change vs veh, DNAJB6 / RFU, CACNA2D3 / Fold change vs veh, CACNA2D3 / RFU, DTX4 / Fold change vs veh, DTX4 / RFU, TFCP2 / Fold change vs veh, TFCP2 / RFU, GMCL1 /// GMCL1P1 / Fold change vs veh, GMCL1 /// GMCL1P1 / RFU, AEBP2 / Fold change vs veh, AEBP2 / RFU, SNHG1 /// SNORD22 /// SNORD25 /// SNORD26 /// SNORD27 /// SNORD28 /// SNORD29 /// SNORD31 / Fold change vs veh, SNHG1 /// SNORD22 /// SNORD25 /// SNORD26 /// SNORD27 /// SNORD28 /// SNORD29 /// SNORD31 / Fold change (Aza/veh), C12orf56 (ProbeSet 11735607_a_at) / Fold change (ACY-1035/veh), C12orf56 (ProbeSet 11735607_a_at) / Fold change (Aza/veh), FGFR1OP (ProbeSet 11751329_s_at) / Fold change (ACY-1035/veh), FGFR1OP (ProbeSet 11751329_s_at) / Fold change (Aza/veh), VPS36 (ProbeSet 11739960_a_at) / Fold change (ACY-1035/veh), VPS36 (ProbeSet 11739960_a_at) / RFU SYPL1 (11715823_x_at) / Fold change /veh SYPL1 (11715823_x_at) / RFU IGFBP7 (11715501_s_at) / Fold change /veh IGFBP7 (11715501_s_at) / RFU REEP3 (11722064_at) / Fold change /veh REEP3 (11722064_at) / RFU IGLL1 (11728026_x_at) / Fold change /veh IGLL1 (11728026_x_at): dose or concentration left out as unconfirmed",
  "conditions": "MV-4-11 cells, 48 hours",
  "data": [
    {"smiles": "Nc1ncn([C@@H]2O[C@H](CO)[C@@H](O)[C@H]2O)c(=O)n1", "note": "[azacitidine]", "values": [
      {"measurement": "RFU RGS16 (11746705_a_at)", "value": 77.87, "unit": "RFU"}
    ]}
  ]
}
